Read-outs that look alike come from different tables or passages of the source.
What was measured:
HLE cells = test: Apoptosis assay (Annexin V-FITC/PI flow cytometry); assay type: cell-based, human; details: 72 h, IBN-15 60 μM, IBN-19 90 μM, IBN-24 90 μM, IBN-25 30 μM, IBN-32 20 μM, DMSO 0.045%
Description: FIG. 36. IMSs induce apoptosis in Hepatocarcinoma cells. A) Cells were treated with vehicle and IBN 15, IBN 19, IBM 24, IBN 25 and IBN 32 for 72 h, and apoptosis was quantified using Annexin V-FITC/PI staining followed by flow cytometric analysis. 10,000 cells were detected for every sample. Living cells are in the bottom left quadrants (FITC− and PI−), early apoptotic cells in the bottom right quadrants (FITC+ and PI−), and late apoptotic cells in the upper right quadrants (apoptotic FITC+ and PI+). B) The percentage of apoptotic cells with respect to different IMSs.
To determine apoptosis analysis, 4×10^5 cells were plated in 10 cm dish. […] The floating and trypsinized adherent cells were collected and the apoptosis was quantified using Annexin V-FITC reagent (BD Biosciences Pharmingen) and PI (Invitrogen) following the manufacturer's protocol. Briefly, the cells were washed twice with cold PBS and then resuspend cell in 100 μl of × binding buffer containing a 10 μl of Annexin V-FITC (BD-Pharminagen) and 2 μl of PI from the stock of 100 μg/ml. The cells were gently vortexed and incubated for 15 min at room temperature in the dark. Subsequently 400 μl of 1× binding buffer were added to each tube, and the samples were immediately analyzed by FACScan flow cytometer (Becton Dickinson). The fluorescent signals of the Annexin-V conjugate and PI were detected at channels of fluorescence intensity FL1 and FL2 (BD LSR II with software BD).
Cells undergoing apoptosis would stain positive for Annexin and negative for PI (quadrant 4, Q4). Cells which stained positive for both Annexin V-FITC and PI (Q2) are either at the end stage of apoptosis or undergoing necrosis, and those which stained negative for both Annexin V-FITC and PI (Q3) were alive or undergoing undetectable apoptosis. In contrast, cell debris stained only for PI (Q1).

p53 = test: Immunostaining and confocal microscopy of p53; assay type: cell-based, human; details: HLE, 48 h
Description: FIG. 39. IMSs-induced apoptosis was accompanied by accumulation of p53 in the nucleus. HLE cells were treated with the indicated dose of IBN 19 and IBN 24 for 48 h. The treated cells were fixed with 4% formaldehyde, immunostained with anti-p53 (green fluorescence) and DAPI (blue fluorescence), and analysed by confocal microscopy.
For immunostaining, HLE cells were seeded at a density of 1×10^4 in 8 well chamber slide. After 24 h incubation, the cells were replaced with 200 μl fresh 10% DMEM medium and then treated with 60 μM of IBN-15, 90 μM of IBN-19, 90 μM of IBN-24, 30 μM of IBN-25 and 20 μM of IBN-32 and 0.045% DMSO as control for 24 and 48 h. After washing, cells were fixed in 4% formaldehyde for 15 mins and permeabilized with 0.5% Triton X-100 in PBS for 10 mins. The cells were then blocked for 60 min in PBS containing 3% bovine serum albumin and then incubated for 1 h with a mouse antibody against nucleolin (MS-3, Santa Cruz; 1:100 in blocking buffer). After washing extensively with PBS, the cells were then incubated for 1 h at room temperature in dark with a FITC-conjugated antibody against mouse IgG (1:20 ilution). The slides were mounted with a VectaShield medium containing DAPI (Vector Laboratories, Burlingame, Calif.). Microscopy was performed with a Zeiss LSM 510 Meta (upright stand) confocal microscope.

HSC T6 cells = test: MTS based proliferation assay (cytotoxicity) on cultured HSC-T6 cells; assay type: cell-based, rat; details: for IC50: read-out: IC50 (toxicity on T6 cells); for inhibition of cell proliferation: 48 h, 10% FBS DMEM
Description: FIG. 1. Cytotoxicity of (a) DBZIM and (b) TDBZIM. […] The signal was normalized against a vehicle control treatment (0 μM of compound). The data were obtained from four independent experiments, and presented as mean and standard error or mean (SEM), *^aP<0.05, *^bP<0.01 and *^cP<0.005.
Firstly we assessed the cytotoxicity of DBZIM and TDBZIM on cultured HSC-T6 cells using a 3-(4,5-dimethylthiazol-2-yl)-5-(3-carboxymethoxyphenyl)-2-(4-sulfophenyl)-2H-tetrazolium (MTS) based proliferation assay kit (Promega, Wis., USA). […]

[1] = system: col1a1, fibronectin, GFAP, SMAA, TGF-β1, TGFβ RI protein expression; test: Western blotting of fibrotic marker proteins in HSC T6 cells; assay type: cell-based, rat; details: DBZIM 100 μM, TDBZIM 50 μM, 48 h
Description: FIG. 8. […] The target proteins were recognized by the respective antibodies, and visualized by the ECL method. The membrane was stripped and re-probed for α-tubulin as the loading control. FIG. 13. […] DPIM (2 mM), EGCG (25 μM) and DBZIM (100 μM) were dissolved in H2O. Alpha-tubulin was used as the loading control. Densitometric measurement of protein band intensity was normalized against the respective vehicle control. (B) Relative densitometric quantification of protein band intensity. The vehicle treated sample was normalized to 1. Protein extracts were prepared by lysing a cell pellet in 10 volumes of boiled 1% sodium dodecyl sulfate (SDS) (90-95° C.) for 10 min for GFAP, or using NE-PER nuclear and cytoplasmic extraction reagents from Pierce (IL, USA) for nuclear proteins, or RIPA (Pierce, Ill., USA) for SMAA, fibronectin, collagen αI(I), TGF-β1 and TGFβ RI. Protein content was quantified using a BCA kit (Pierce, Ill., USA). 15 μg of total protein were resolved in 4-12% gradient SDS/polyacrylamide gel electrophoresis (PAGE) gel, and transferred to a nitrocellular membrane. The membrane was then probed with primary antibodies against GFAP (Dako, Denmark), SMAA (Sigma, USA), procollagen αI(I), fibronectin, c-Jun, c-Fos, JunB, JunD, […] Cruz Biotechnology, CA, USA), NF-κB P65, TGF-β1 and TGFβ RI (Abeam, UK), and detected by horseradish peroxidase-conjugated secondary antibody (Santa Cruz Biotechnology, CA, USA). […] Protein bands were recorded on X-ray film by reacting with ECL chemiluminescence reagents (Amersham Biosciences, NJ, USA). Alpha-tubulin (Abeam, UK) was used as the loading control for total protein, and Tata binding protein (TBP) (Abeam, UK) was used as the loading control for nuclear protein.

[2] = Rattus norvegicus, HSC-T6, HSC T6 cells

Compound	cell apoptosis (Q2) (HLE cells)	p53 expression and nuclear accumulation (p53)	IC50 (HSC T6 cells; [2])	SMAA protein expression [1]	procollagen αI(I) and fibronectin protein expression [1]	further results
Cc1ccc(C[n+]2ccn(Cc3ccccc3)c2)cc1.[Cl-] [IBN-24, 1-benzyl-3-(4-methylbenzyl)-imidazolium chloride]	29%	induced p53 expression and accumulation in the nucleus				
CC(=O)Oc1ccc(C[n+]2ccn(Cc3ccccc3)c2C)cc1.[Cl-] [IBN-19, 1-benzyl-3-(4-acetate-benzyl)-2-methyl-imidazolium chloride]	29%	induced p53 expression and accumulation in the nucleus				
CC(C)n1cc[n+](C(C)C)c1.F[B-](F)(F)F [DPIM, 1,3-diisopropylimidazolium tetrafluoroborate]			3100 µM			
1,3,5-tris(4-methyl-imidazolium)-linked cyclophane.3Br [TDBZIM]				enhanced	attenuated procollagen αI(I) and fibronectin significantly	IC50 (HSC T6 cells; HSC T6 cells): ~500 µM; inhibition of cell proliferation (HSC T6 cells; TDBZIM 125-200 μM): 13-19%
[Br-].c1ccc(Cn2cc[n+](Cc3ccccc3)c2)cc1 [DBZIM, 1,3-bisbenzylimidazolium bromide]			1700 µM	suppressed	attenuated procollagen αI(I) and fibronectin significantly	inhibition of cell proliferation (HSC T6 cells; DBZIM 250-400 μM): 3.5-8.9%

Reference: patent US9072729B2, “Method for treating fibrosis and cancer with imidazolium and imidazolinium compounds” (Agency for Science, Technology and Research, priority 2008, dated 2015)
